According to patent publication US20080081039A1, “Inorganic Selenium For Treatment Of Cancer” (priority 2004, published 2008):

Legend:
[1] = tested on: GFP-FKHR fusion protein; experiment: GFP-FKHR cellular localization in transfected PC-3 cells; format: cell-based, human; conditions: LY294002 50 μM 1 hour; sodium selenate or selenomethionine 0.5 mM 3 hours
Description: The day before transfection, 5×10^5 PC-3 cells were seeded in 24-well dishes and transiently transfected with 0.8 μg of pcDNA3-GFP-FKHRwt construct (kind gift Dr Bill Sellers, Dana-Farber Institute, Boston) using Lipofectamine 2000 (Invitrogen). Cells were permeabilized in 0.2% Triton X-100 and the nuclear contents stained with DAPI. Coverslips were mounted with fluorescent mounting medium (DAKO). The cellular distribution of green fluorescence was determined in dual fluorescent cells using a Leica epifluorescent microscope.
Reintroducing PTEN function in such cells induces translocation of FKHR to the nucleus eventually causing G1 arrest in PTEN-null cells (Nakamura et al 2000, supra).

[2] = tested on: prostate tumor PC-3 cells
Description: 1×10^6 prostate tumor PC-3 cells were injected into the prostate of nude mice. […] Paclitaxel at 10 mg/kg was administered intraperitoneally once per week in 10% Cremophor EL/25% ethanol/65% PBS solution to those animals receiving paclitaxel. 10 animals were used per group. After 5 weeks post injection, animals were sacrificed, the prostates removed, the appendages dissected off and the tumors weighed. The retroperitoneum was explored for lymphadenopathy and lymph nodes greater than 0.5 mm diameter excised. The tumors were then step sectioned at 50 micron steps and tumor volumes calculated from the digitized images using the standard volumetric formula […].

What does the source list for `O=[Se](=O)(O)O` [sodium selenate]?
relocalization of GFP-FKHR from the cytoplasm to the nucleus [1]: marked relocalization; prostate tumor weights ([2]; 5 ppm selenium in drinking water and/or paclitaxel 10 mg/kg intraperitoneally once per week, 5 weeks, control received Cremophor/ethanol carrier): not reduced compared to the control; microvessel density in the tumors ([2]; selenate alone, 5 ppm in drinking water): greater effect on reducing microvessel density in the tumors than on tumor volumes
